Test results published in ChEMBL document CHEMBL3217516, “Library synthesis and cytotoxicity of a family of 2-phenylacrylonitriles and discovery of an estrogen dependent breast cancer lead compound” (Medchemcomm, 2011).

Tests used:
MCF7 [1] = assay: Selectivity ratio of GI50 for human A431 cells to GI50 for human MCF7 cells; assay type: functional
[2] = Selectivity ratio of GI50 for human MCF10A cells to GI50 for human MCF7 cells; assay type: ADME, cell-based, MCF-10A; details: MCF10A cells and MCF7 cells, read-out: RatioGI50
MCF7 [3] = assay: Selectivity ratio of GI50 for human SJ-G2 cells to GI50 for human MCF7 cells; assay type: functional
MCF7 [4] = assay: Selectivity ratio of GI50 for human HT29 cells to GI50 for human MCF7 cells; assay type: functional
MCF7 [5] = assay: Selectivity ratio of GI50 for human MDA-MB-231 cells to GI50 for human MCF7 cells; assay type: functional
[6] = Cytotoxicity against human MDA-MB-231 cells after 72 hrs by MTT assay; assay type: cell-based
A2780 [7] = assay: Selectivity ratio of GI50 for human A2780 cells to GI50 for human MCF7 cells; assay type: functional
MCF7 [8] = assay: Selectivity ratio of GI50 for human H460 cells to GI50 for human MCF7 cells; assay type: functional
MCF7 [9] = assay: Selectivity ratio of GI50 for human BE(2)-C cells to GI50 for human MCF7 cells; assay type: functional
MCF7 [10] = assay: Selectivity ratio of GI50 for human MIA cells to GI50 for human MCF7 cells; assay type: functional
[11] = Cytotoxicity against human MCF10A cells after 72 hrs by MTT assay; assay type: cell-based, MCF-10A
DU-145 [12] = assay: Selectivity ratio of GI50 for human DU145 cells to GI50 for human MCF7 cells; assay type: functional
MCF7 [13] = assay: Selectivity ratio of GI50 for human SW480 cells to GI50 for human MCF7 cells; assay type: functional
[14] = Cytotoxicity against human MIA cells after 72 hrs by MTT assay; assay type: functional
[15] = Cytotoxicity against human H460 cells after 72 hrs by MTT assay; assay type: functional; details: NCI-H460, 72 h
MCF7 [16] = assay: Cytotoxicity against human MCF7 cells after 72 hrs by MTT assay; assay type: functional; details: MCF7, 72 h
HT-29 [17] = assay: Cytotoxicity against human HT-29 cells after 72 hrs by MTT assay; assay type: functional; details: HT-29, 72 h
A2780 [18] = assay: Cytotoxicity against human A2780 cells after 72 hrs by MTT assay; assay type: functional; details: A2780, 72 h
[19] = Cytotoxicity against human BE(2)-C cells after 72 hrs by MTT assay; assay type: functional
A-431 = assay: Cytotoxicity against human A431 cells after 72 hrs by MTT assay; assay type: functional; details: A-431, 72 h
SW480 [20] = assay: Cytotoxicity against human SW480 cells after 72 hrs by MTT assay; assay type: functional; details: SW480, 72 h
DU-145 [21] = assay: Cytotoxicity against human DU145 cells after 72 hrs by MTT assay; assay type: functional; details: DU-145, 72 h
[22] = Cytotoxicity against human SJ-G2 cells after 72 hrs by MTT assay; assay type: functional; details: SJ-G2, 72 h
DU-145 [23] = assay: Selectivity ratio of GI50 for human DU145 cells to GI50 for human BE(2)-C cells; assay type: functional
DU-145 [24] = assay: Selectivity ratio of GI50 for human DU145 cells to GI50 for human SJ-G2 cells; assay type: functional
DU-145 [25] = assay: Selectivity ratio of GI50 for human DU145 cells to GI50 for human MIA cells; assay type: functional
DU-145 [26] = assay: Selectivity ratio of GI50 for human DU145 cells to GI50 for human A431 cells; assay type: functional
SW480 [27] = assay: Selectivity ratio of GI50 for human DU145 cells to GI50 for human SW480 cells; assay type: functional
A2780 [28] = assay: Selectivity ratio of GI50 for human DU145 cells to GI50 for human A2780 cells; assay type: functional
SW480 [29] = assay: Selectivity ratio of GI50 for human H460 cells to GI50 for human SW480 cells; assay type: functional
HT-29 [30] = assay: Selectivity ratio of GI50 for human H460 cells to GI50 for human HT29 cells; assay type: functional
[31] = Selectivity ratio of GI50 for human H460 cells to GI50 for human A431 cells; assay type: functional
A2780 [32] = assay: Selectivity ratio of GI50 for human H460 cells to GI50 for human A2780 cells; assay type: functional
[33] = Selectivity ratio of GI50 for human H460 cells to GI50 for human MIA cells; assay type: functional
[34] = Selectivity ratio of GI50 for human H460 cells to GI50 for human BE(2)-C cells; assay type: functional
DU-145 [35] = assay: Selectivity ratio of GI50 for human H460 cells to GI50 for human DU145 cells; assay type: functional
DU-145 [36] = assay: Selectivity ratio of GI50 for human DU145 cells to GI50 for human HT29 cells; assay type: functional
DU-145 [37] = assay: Selectivity ratio of GI50 for human DU145 cells to GI50 for human H460 cells; assay type: functional
[38] = Selectivity ratio of GI50 for human H460 cells to GI50 for human SJ-G2 cells; assay type: functional

| Structure (SMILES) | selectivity ratio [2] | RatioGI50 (MCF7 [5]) | GI50 at 72 h [6] | GI50 at 72 h [11] | GI50 [14] | GI50 [15] | GI50 (MCF7 [16]) | GI50 (HT-29 [17]) | GI50 (A2780 [18]) | GI50 [19] | GI50 (A-431) | GI50 (SW480 [20]) | GI50 (DU-145 [21]) | GI50 [22] | also measured |
| --- | --- | --- | --- | --- | --- | --- | --- | --- | --- | --- | --- | --- | --- | --- | --- |
| N#C/C(=C\c1ccc([N+](=O)[O-])cc1)c1ccc(Cl)c(Cl)c1 | 126 | 268 | 34 µM | 16 µM | 27 µM |  |  |  |  |  |  |  |  |  | RatioGI50 (MCF7 [1]): 543; RatioGI50 (MCF7 [3]): 543; RatioGI50 (MCF7 [4]): 25; RatioGI50 (A2780 [7]): 543; RatioGI50 (MCF7 [8]): 543; RatioGI50 (MCF7 [9]): 543; RatioGI50 (MCF7 [10]): 543; RatioGI50 (DU-145 [12]): 543; RatioGI50 (MCF7 [13]): 543 |
| N#C/C(=C\c1ccc[nH]1)c1ccc(Cl)c(Cl)c1 | 126 | 268 | 46 µM | 28 µM | 46 µM | 5.7 µM | 0.56 µM | 15 µM | 16 µM | 25 µM | 3.2 µM | 23 µM | 41 µM | 20 µM |  |
| N#C/C(=C\c1cccc(Cl)c1)c1ccc(Cl)c(Cl)c1 |  |  |  |  | 15 µM | 40 µM | 7.2 µM | 8.4 µM | 11 µM | 12 µM | 16 µM | 8.9 µM | 55 µM | 12 µM | RatioGI50 (DU-145 [23]): 5; RatioGI50 (DU-145 [24]): 5; RatioGI50 (DU-145 [25]): 5; RatioGI50 (DU-145 [26]): 5; RatioGI50 (SW480 [27]): 5; RatioGI50 (A2780 [28]): 5; RatioGI50 (SW480 [29]): 5; RatioGI50 (HT-29 [30]): 5; RatioGI50 [31]: 5; RatioGI50 (A2780 [32]): 5; RatioGI50 [33]: 5; RatioGI50 [34]: 5; RatioGI50 (DU-145 [35]): 5; RatioGI50 (DU-145 [36]): 5; RatioGI50 (DU-145 [37]): 5; RatioGI50 [38]: 5 |
